The values that follow come from patent publication US6077872A (priority 1998, dated 2000).

The nature of one data set: in vivo. The note with it: rat; for AUC / Cmax / Tmax / half-life: in vivo, po, 200 mg/kg; for enhancement of serum Ca level: 200 mg calcium/kg oral. From the text: (2) apparatus: Model WFX-1B Spectrophotometer of Atomic Absorption was produced by The Second Optical Apparatus Factory of Beijing, 83114; P-E 3030 Spectrophotometer of Atomic Absorption was produced by Perkin-Elmer Corp.,USA;DT-100 Single-Pan Balance (1/10^4) was produced by Beijing Optical Apparatus Factory; TJ-6 Centrifuge was produced by Beckman, USA; Model MVS-1 Vortex Mixer was produced by Beijing Beide Scientific Apparatus and Materials Co. Ltd.
Twelve hours after the animals had been fasted, 0.5 mL plasma was sampled by excising eyeballs. The plasma was established as the blank group. Then rats were administered agents once in an amount of 20 mL/kg body weight by pouring into the stomach. 0.5 mL plasma was sampled by taking from eyeballs 0.25,0.5,1,1.5,2,3,4,6,8,12 and 16 hours later after the administration. […] The concentration of calcium was measured by a Model WFX-1B Spectrophotometer of Atomic Absorption.

The test system of data set [1] is rickets-babies. The protocol:
Fourty rickets-babies at the age of 3-10 months were randomly divided into 2 groups of 20 babies each. […] Test group II, namely the calcium carbonate group, were administered orally calcium carbonate twice a day in a dosage of one bag each time.
(2) Biochemical examinations of blood. Venous blood of rickets-baby was sampled before and after the beginning of test and serum Ca, P and AKP level were measured and the product of [Ca]×[P] was calculated.
(3) Data processing: All data was statistically analyzed using the method of direct calculation of probability, grouping t-test and pairing t-test.
Considering the difficulty in sampling blood from rickets-babies during the test operation, blood sampling was not performed at the second week after the beginning of the test. Blood sampling was only performed before the test and at the fourth week after the beginning of the test.

The subject of another data set is osteoporosis. The note with it: oral administration; Recker et al 1977; cited from earlier work.
A further data set has as its system preschool children. The note with it: for bone mineral density: before test 0.379 (threonate), 0.369 (carbonate). The protocol: Seventy 3-6 years old healthy children whose bone mineral density were medium-lower at a central kindergarten in the suburban county of Beijing were selected as subjects, wherein there are 13 boys and 57 girls. All were healthy children who didn't have any metabolic diseases, liver or kidney diseases, bone wounds and abnormal diseases.
Double blind method was employed during the observation. Every person was administered calcium preparation or placebo twice a day in a dosage of 1 bag each time. […] Group IV, established as blank-control group, was administered placebo which didn't contain calcium. All the above oral preparations were provided by Beijing Juneng Asian-Pacific Life Science Research Center.
(1) Bone mineral density was measured before the test and 1.5 months and 3 months later after the administration of Ca supplements.
The bone mineral density of radius in non-preferred hand was measured at the 1/3 point near the farther-end by a Model BMD400 Single-Photon absorptiometry produced conjointly by Institute of Atomic Energy, Ministry of Nuclear Industry, China and Institute of Broadcasting, Beijing, to obtain mean mineral bone density (BMD, g/cm^2). Each point was scanned twice with a scanning speed of 0.5 mm/sec.
All data was analyzed with a SAS statistical software package.

In data set [2] the test system is rickets-babies. The note with it: for craniomalacia, babies with symptom after the beginning of test: before test 3 (threonate), 4 (carbonate); for pillow-bald, babies with symptom after the beginning of test: before test 9 (threonate), 9 (carbonate); for night-sweat, babies with symptom after the beginning of test: before test 12 (threonate), 13 (carbonate). The protocol: Fourty rickets-babies at the age of 3-10 months were randomly divided into 2 groups of 20 babies each. […] Test group II, namely the calcium carbonate group, were administered orally calcium carbonate twice a day in a dosage of one bag each time. Each bag of the two kind of calcium preparations contained the same amount of element calcium, namely 150 mg element calcium.
(1) Clinic symptoms mainly included the normal symptoms of rickets-babies such as night-sweat, pillow-bald, craniomalacia, etc.

The subject of data set [3] is rickets-mice. In words: Preventing rickets in younger mice: tibia strength (three-point bending). Type of data set: in vivo, mice of Kunming species. The protocol:
(§1) The mice were bred for 60 days under conditions of avoiding light around-the-clock, at a temperature of 20-25° C. and a relative humility of 40-60% while the normal-control group mice were fed ordinary diet and water and were placed in non-dark room.
(§2) The low-calcium diet used in this test was the same as that in Test II but VD in the vitamin mixture was replaced by glucose.
(§3) Some weanling mice were placed in dark room and fed VD -deficient low-calcium diet and drunk de-ionized water for 60 days, thus a ricket model of baby mice was prepared. While other weanling mice were placed in non-dark room and fed ordinary diet and drunk tap water for 60 days, these mice were established as normal-control group.

In data set [4] the test system is rickets-mice. The data set is described as follows: Preventing rickets in younger mice: body weight, dry weight, ash weight and total calcium content of femur. Type of data set: in vivo, mice of Kunming species. Particulars: 300 mg calcium element. The procedure: as §1, §2, §3
For data set [5], the system named is rickets-mice. The data set is described as follows: Preventing rickets in younger mice: serum Ca, AKP, P. The class given is in vivo, mice of Kunming species. Particulars: 300 mg calcium element, 60 days. The protocol: as §1, §2, §3
Setting [6] is: after four weeks of Ca-supplementing.
[7] abbreviates: 2 bags/day of 150 mg element calcium, 1.5 months.

Like-named read-outs stand apart in the source and are kept apart here.

Turning to `CC(=O)O` [calcium acetate], in the data set “in vivo”, the AUC (usually the area under the concentration-time curve, a measure of exposure) came to 28200 ng·h/mL; the Cmax (in general, the peak of the concentration-time curve) was determined as 24900 ng/mL; the Tmax (commonly the time at which the peak concentration occurs) worked out at 36.6 min.

As to `O=C(O)O` [calcium carbonate], the “enhancement of serum Ca level” value in the data set “in vivo” (0.25 hrs) amounted to 11.1 µg/mL; in “in vivo” (0.5 hrs) it was 24.7 µg/mL; in “in vivo” (1 hrs), 21.4 µg/mL; in “in vivo” (1.5 hrs) it was 17.1 µg/mL; in “in vivo” (2 hrs) it was 13.2 µg/mL; in the data set “in vivo” (3 hrs), 10.9 µg/mL. Besides, the figures for the “enhancement of serum Ca level” value in the data set “in vivo” (4 hrs), in “in vivo” (6 hrs) and in the data set “in vivo” (8 hrs) were 5.7 µg/mL, 0.2 µg/mL and -1.4 µg/mL, respectively. The AUC in “in vivo” turned out to be 40400 ng·h/mL. Besides, the Cmax in the data set “in vivo” amounted to 31100 ng/mL. The Tmax in “in vivo” was 39.6 min. In “in vivo”, the half-life – broadly, the time in which the quantity being followed falls by half – is 20.4 min. Moreover, in the data set on rickets-babies [1] (setting [6]), the “percentage of babies whose AKP reached the normal range” value is 30%. Moreover, the “percentage of babies whose [Ca] × [P] reached the normal range” value with rickets-babies [1] (setting [6]) is 70%. In addition, the “percentage of babies whose serum P reached the normal range” value with rickets-babies [1] (setting [6]) is on record as 60%. Further, the “serum Ca change (in words)” value with rickets-babies [1] (before and after the test, P>0.05) is “no significant variation”. Besides, the “serum P” value with rickets-babies [1] (four weeks after, before 3.19 ± 0.25 (threonate), 3.12 ± 0.20 (carbonate)) worked out at 3.90 ± 0.52. Also, the “serum Ca” value with rickets-babies [1] (four weeks after, before 10.49 ± 0.39 (threonate), 10.51 ± 0.47 (carbonate)) stood at 10.55 ± 0.42. Besides, the “[Ca] × [P]” value in the data set on rickets-babies [1] (four weeks after, before 33.4 ± 2.47 (threonate), 33.83 ± 2.17 (carbonate)) is 43.19 ± 5.22. The molecule also displayed an AKP in the data set on rickets-babies [1] (four weeks after, before 235.95 ± 7.89 (threonate), 235.25 ± 7.37 (carbonate)) of 225.25 ± 22.93. The “effectiveness for preventing osteoporosis” value in the data set on osteoporosis is reported as “not effective for preventing osteoporosis”. In addition, the bone mineral density is 0.385 ± 0.028 g/cm^2 with preschool children (2 bags/day of 150 mg element calcium, 1.5 month) and 0.412 ± 0.020 g/cm^2 with preschool children (2 bags/day of 150 mg element calcium, 3 month). Also, the “extent of BMDs' increase” value in the data set with preschool children (setting [7]) was determined as 4.37%; with preschool children (2 bags/day of 150 mg element calcium, 3 months), 11.65%. The “percentage of children whose BMDs reached the normal range” value in the data set with preschool children (setting [7]) is 0%. In the data set with preschool children (in vivo), the “BMD comparison between groups (in words)” value was “markedly higher than those of the blank-control group only in 3 months”. Moreover, the total symptom improvement in the data set on rickets-babies [2] (four weeks) turned out to be 57.6%; in the data set with rickets-babies [2] (two weeks) it was 11.5%. The results for the “craniomalacia, babies with symptom after the beginning of test” value in the data set on rickets-babies [2] (four weeks) and in the data set on rickets-babies [2] (two weeks) were 3 and 4, respectively. In addition, the “pillow-bald, babies with symptom after the beginning of test” value was 5 with rickets-babies [2] (four weeks) and 9 with rickets-babies [2] (two weeks). The “night-sweat, babies with symptom after the beginning of test” value in the data set on rickets-babies [2] (four weeks) amounted to 3; in the data set on rickets-babies [2] (two weeks), 10. Further, in the data set on rickets-babies [2] (two weeks of administration (concluding text)), the “rickets-babies free of symptoms” value turned out to be 50%.

Turning to `O=C(O)[C@H](O)[C@@H](O)[C@H](O)[C@H](O)CO` [calcium gluconate, reference compound], in the data set “in vivo”, the AUC amounted to 138000 ng·h/mL, the Cmax amounted to 32100 ng/mL, the Tmax turned out to be 26.4 min and the half-life was 160 min. The “breaking force (tibia)” value in the data set on rickets-mice [3] (300 mg calcium element, model 1.12 ± 0.37) is on record as 1.54 ± 0.35 kg. For the same molecule, the “breaking force of tibia (in words)” value in the data set on rickets-mice [3] (mouse, in vivo) was “significantly higher than those for the model group and were comparable with those for the normal-control group”. Besides, the “dry weight of femur” value in the data set with rickets-mice [4] (model 0.099 ± 0.014) is recorded as 0.122 ± 0.019 g. Moreover, in the data set with rickets-mice [4] (model 24.81 ± 4.36), the total calcium content is reported as 30.23 ± 5.23 mg. Moreover, the ash weight in the data set on rickets-mice [4] (model 46.62 ± 9.38) is 70.76 ± 10.18 mg. Further, in the data set with rickets-mice [5] (model 1.55 ± 0.42), the “serum Ca” value turned out to be 2.37 ± 0.97 mmol/L. For the same molecule, the “serum P” value with rickets-mice [5] (model 2.23 ± 0.52) amounted to 1.71 ± 0.45 mmol/L. The “serum AKP (in Bessey-Loury unit)” value in the data set on rickets-mice [5] (model 101 ± 34) is on record as 46.6 ± 13 U/L.
